Assays:
[1] = system: N-acetylglucosaminidase (GlcNAcase) of TN5 cells; assay: GlcNAcase inhibition assay of TN5 cells (p-nitrophenol release from p-nitrophenyl β-D-acetylglucosamide); format: biochemical, insect (TN5 cells)
Experimental: The GlcNAcase inhibition assay of TN5 cells was performed as follows.
TN5 cells (2.0×10^7 cells) were washed once with PBS and rinsed with 1 ml of PBS containing 1% Triton-X 100. After centrifugation at 1,000×g for 5 minutes, the supernatant was used as an enzyme source. Fifty μl of the supernatant was mixed with 50 μl of 2-ADN to make a final 2-ADN concentration of 0 to 5 mM. To the solution mixture, 200 μl of a substrate solution (1 mg/ml p-nitrophenyl β-D-acetylglucosamide in 0.2 M citrate/phosphate buffer) was added. The resultant solution was incubated at 37° C. for one hour. The reaction was quenched by adding 1 M Na2CO3, the absorption of released p-nitrophenol was measured at 420 nm. […] Lanes 1 to 6 in the figures show the results obtained at addition amounts of 2-ADN, 0, 0.05, 0.5, 1, 2 and 5 mM, respectively.

[2] = system: TN5 cells; conditions: 2-ADN added in a concentration of 5 mM
Experimental: TN5 cells were cultured in EX-CELL401 medium (manufactured by JRH Bioscience) containing 0 to 5 mM of 2-acetamide-1,2-dideoxynojirimycin (2-ADN) (Tront Research Chemicals Inc.) at 28° C. for 3 days. Subsequently, TN5 (TN5B1-4) cells were infected with the recombinant baculovirus prepared as described above at an moi of 1.0 and subjected to a further culturing in EX-CELL401 medium (manufactured by JRH Bioscience) at 28° C. for 3 days. Thereafter, the supernatant containing recombinant boIFN-τ (rboIFN-τ) was recovered.

[3] = system: α-2,6-linked sialylation of recombinant boIFN-τ in TN5 cells; assay: Lectin blot analysis (HRP-SNA) of sialic acid in recombinant boIFN-τ expressed by TN5 cells; format: cell-based, insect (TN5 cells); conditions: 2-ADN 0, 0.05, 0.5, 1, 2 and 5 mM; total amount of protein of each lane the same
Experimental: After TN5 cells were infected with a recombinant baculovirus, they were cultured for 3 days. The supernatant was subjected to Tricine SDS-PAGE performed under reducing conditions (600 ng protein per lane). After the separated protein was transferred on a PVDF membrane, and blocked with PBS containing 1% BSA at 4° C. overnight, the protein was washed with 200 mM Tris-buffered saline (TBS) containing 0.05% Tween 20, and then reacted with 5 μg/ml Sambucus nigra agglutinin labeled with horseradish peroxidase (HRP-SNA, manufactured by EY laboratory) at room temperature for one hour. The carbohydrate reacted was visualized by a Renaissance Western Blot Chemiluminescence Kit (Manufactured by NEN).
To investigate whether or not a sialylated recombinant glycoprotein is produced in insect cells where the GlcNAcase activity is inhibited, the terminal structure of N-glycan of recombinant boIFN-τ was determined by a lectin blot analysis using SNA, which is a lectin capable of recognizing α-2,6-linked sialic acid.

[4] = system: N-glycosylation of recombinant boIFN-τ in TN5 cells; assay: SDS-PAGE and Western blot of recombinant boIFN-τ from TN5 cells cultured with tunicamycin; format: cell-based, insect (TN5 cells); conditions: 1 μg/ml tunicamycin, 3 days; only the 19.5 kD molecule observed
Experimental: The addition of a sugar chain to a recombinant protein, that is, N-glycosylation, was inhibited by culturing the TN5 cells infected with a recombinant baculovirus in a medium containing 1 μg/ml tunicamycin (manufactured by Sigma Chemical Co.) for 3 days.
Twenty μl of the culture supernatant of TN5 cells cultured for 3 days after infection with a recombinant baculovirus was subjected as a sample to Tricine SDS-PAGE performed under reducing conditions in accordance with a method described in Schagger, H. et al., Anal. Biochem. 166, 368-379 (1987). After electrophoresis, the separated protein was stained with Coomassie brilliant blue (CBB)G-250 or blotted on a polyvinylidene difluoride (PDFV) membrane (manufactured by Millipore Corporation). The protein-transferred membrane was blocked with PBS containing 5% skim milk at 4° C. overnight and allowed to react with a 0.2 μg/ml anti-boIFN-τ monoclonal antibody (manufactured by Katakura Industries) at room temperature for one hour, and further incubated with 2000-fold-diluted HPR-rabbit anti-mouse IgG at room temperature. The antibody bound to the protein was visualized by 3,3′-diaminobenzidine staining. The densities of bands obtained after the CBB staining and Western blotting were quantified by using a densitometer.

Compound	GlcNAcase activity, dependence on concentration ([1]; 0 to 5 mM 2-ADN)	GlcNAcase activity inhibited ([1]; 5 mM 2-ADN, TN5 cell lysate supernatant, 37° C., one hour)	proliferation of cells [2]	SNA-reactive band intensity (sialic acid in recombinant boIFN-τ) [3]	N-glycosylation of recombinant boIFN-τ [4]
CC(=O)N[C@H]1CN[C@H](CO)[C@@H](O)[C@@H]1O [2-ADN, 2-acetoamide-1,2-dideoxynojirimycin]	inhibited by 2-ADN in a concentration-dependent manner	About 80%	not affected	increased by adding 2-ADN in a concentration dependent manner	
tunicamycin					blocked
